4 compounds from US8110601B2, “Compound, α1 adrenergic receptor antagonistic agent, and composition” (Suntory Holdings Limited, priority 2007, dated 2012) can be followed below.

Assay [1] addresses T1, α1A receptor (Rattus norvegicus, UniProt P43140).
T1 construct: the α1A receptors are present on a membrane of a rat salivary gland; from tissue; host or cells: rat salivary gland membrane homogenate
T1 sequence (P43140 1-466): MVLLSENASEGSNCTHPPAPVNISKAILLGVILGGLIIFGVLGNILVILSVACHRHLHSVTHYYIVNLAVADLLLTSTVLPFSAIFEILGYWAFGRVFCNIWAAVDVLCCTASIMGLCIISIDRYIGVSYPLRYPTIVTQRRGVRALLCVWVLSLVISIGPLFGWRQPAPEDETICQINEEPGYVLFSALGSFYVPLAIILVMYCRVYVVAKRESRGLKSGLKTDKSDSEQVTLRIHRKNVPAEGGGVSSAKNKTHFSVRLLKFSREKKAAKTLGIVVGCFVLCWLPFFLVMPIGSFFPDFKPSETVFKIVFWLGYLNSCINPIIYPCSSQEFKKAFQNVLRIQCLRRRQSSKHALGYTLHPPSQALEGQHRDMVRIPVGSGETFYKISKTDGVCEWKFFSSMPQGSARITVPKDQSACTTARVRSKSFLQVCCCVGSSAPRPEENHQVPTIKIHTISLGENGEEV
Put plainly: α1 adrenergic receptor binding test ([3H]prazosin displacement, rat salivary gland membrane homogenate). As to conditions: [3H]prazosin 0.06 nM as ligand; membrane homogenate of rat salivary gland; 22° C., 60 minutes; specimens 0.02-20 μM. The protocol: The compound 19a synthesized in Examples above was weighed, to which 100% dimethylsulfoxide (DMSO) was added so as to prepare a solution at 10-fold of the final concentration. The solution was diluted with an assay buffer, to thereby prepare four types of specimens with different concentrations (0.02 μM, 0.2 μM, 2 μM, 20 μM). In addition, with respect to each of the compound 19b, the racemic mixture of the compounds 19a and 19b, and the racemic mixture of the compounds 20a and 20b, likewise, four types of specimens were prepared (see Mitchel, A. D. et al., (1989) Brt. J. Pharmacol., 98: 883-889).
Next, as the α1 adrenergic receptor, an α1A receptor (one of subtypes of the α1 adrenergic receptor) was used, and a binding ability to the α1A receptor was examined.
It has been known that the α1A receptors are present on a membrane of a rat salivary gland. To an assay buffer (250 μL) containing a membrane homogenate of a rat salivary gland (150 μg in terms of protein amount) were added the above-mentioned specimen and [^3H]prazosin (0.06 nM) as ligand, to thereby prepare a reaction liquid, which was then incubated at 22° C. for 60 minutes. After the incubation, the reaction liquid was subjected to suction filtration using a glass fiber filter (GF/B, manufactured by Packard) which had been washed with 0.3% PEI (polyethyleneimine), to terminate reaction. The glass fiber filter was washed with 50 mM Tris-HCl cooled with ice, washing being repeated several times. The glass fiber filter was dried, a scintillation cocktail (Microscint 0, manufactured by Packard) was added thereto, and residual radioactivity on the filter was measured using a liquid scintillation counter (Topcount, manufactured by Packard). An amount of specific binding of [^3H]prazosin was obtained by subtracting an amount of non-specific binding in the presence of phentolamine (10 μM) from a total binding amount of [^3H]prazosin.

Assay [2] deals with α1 adrenergic receptor. Put plainly: Rat tail artery constriction inhibition test. Particulars: phenylephrine 10 μM, compound 1 μM, 100 μM in organ bath, other receptors blocked with antagonists. The protocol:
Since the α1 adrenergic receptor antagonist has been known to have a vasoconstriction inhibition effect, the constriction inhibition effect of the compounds was examined using rat tail artery.
The compound 19a synthesized in Examples above was weighed, to which 100% dimethylsulfoxide (DMSO) was added so as to prepare a sample solution (stock solution) (concentration of the compound 19a: 100 mM). In addition, the compound 19b, the racemic mixture of the compounds 19a and 19b, and the racemic mixture of the compounds 20a and 20b were prepared likewise.
A tissue (rat tail artery) with an exposed endothelium was suspended in an organ bath filled with 20 mL of saline (NaCl: 118.0 mM, KCl: 4.7 mM, MgSO4: 1.2 mM, CaCl2: 2.5 mM, NaHCO3: 25 mM, glucose: 11.0 mM) (pH7.4) at 37° C., into which 95% oxygen/5% carbon dioxide had been fed. In the rat tail artery tissue, the α2 adrenergic receptor, β adrenergic receptor, histamine H1 receptor, muscarine receptor, and 5-HT2 receptor had been expressed like the α1 adrenergic receptor had, and in order to block the actions of these receptors, antagonistic agents (antagonists) for the respective receptor, i.e., yohimbine (1 μM), propranol (1 μM), pyrilamine (1 μM), atropine (1 μM), and methysergide (1 μM), were added.
In order to measure the contraction of the tissue caused by an action of the α1 adrenergic receptor, the tissue was connected to a force transducer which outputs a tension of the tissue as data. The tension in a static state was adjusted to become 1 g, and was maintained for 60 minutes (during that time period, the tissue was repeatedly washed with saline to readjust the tension). To the tissue was added 10 μM of a reference agonist (phenylephrine 1.0E-05M), and it was confirmed that the tissue responded in a normal manner. At the same time, there was recorded the tension (g) obtained by the contraction of the tissue caused by the action of the reference agonist. After confirming that the tissue responded in a normal manner, the reference agonist was washed out once, and the tissue was allowed to stand still for up to 15 minutes until the response returns to a static state (tension: 1 g).
After the response returned to the static state (tension: 1 g), the reference agonist was added so that the contraction rate of the tissue becomes 100%.
Next, the sample solution or a diluted solution thereof was added in such a manner that each of the concentrations of the compound 19a, the compound 19b, the racemic mixture of the compounds 19a and 19b, and the racemic mixture of the compounds 20a and 20b in the organ bath was increased in three stages (1 μM, 10 μM, 100 μM). Every time the concentration was increased, the tension was measured, and the contraction rate was calculated using the following equation. […]

What is called IC50 is the concentration at which inhibition is half-maximal. Higher therefore signals a need for much substance. In turn, `COC(=O)C1c2cc(C=CC(=O)NCCCCNC(=N)N)ccc2OC1c1ccc(O)cc1` (racemic) [racemic mixture of the compounds 19a and 19b, methyl-5-(1E)-[[4-(aminoiminomethyl)amino]butylamino]-3-oxo-1-propenyl]-2,3-dihydro-2-(4-hydroxyphenyl)-3-benzofurancarboxylate] came in with an IC50 in assay [1] of 2390 nM. Also, the “effect on contraction of rat tail artery caused by reference agonist (phenylephrine)” value in assay [2] is on record as “suppressed a response in the reference agonist (phenylephrine) in a dosage-dependent manner”.
For `N=C(N)NCCCCNC(=O)/C=C/c1ccc2c(c1)C(C(=O)O)C(c1ccc(O)cc1)O2` (racemic) [racemic mixture of the compounds 20a and 20b] the same measures were 1990 nM and “suppressed a response in the reference agonist (phenylephrine) in a dosage-dependent manner”.
`COC(=O)[C@@H]1c2cc(/C=C/C(=O)NCCCCNC(=N)N)ccc2O[C@H]1c1ccc(O)cc1` [compound 19a] had an IC50 in assay [1] of 2030 nM. For the same compound, in assay [2], the “effect on contraction of rat tail artery caused by reference agonist (phenylephrine)” value was “suppressed a response in the reference agonist (phenylephrine) in a dosage-dependent manner”.
For `COC(=O)[C@H]1c2cc(/C=C/C(=O)NCCCCNC(=N)N)ccc2O[C@@H]1c1ccc(O)cc1` [compound 19b] the same measures were 610 nM and “suppressed a response in the reference agonist (phenylephrine) in a dosage-dependent manner”.
